{"source": "patent US5366975A", "about": "“Invertebrate phenylethanolamine transporter and the use thereof” (priority 1992, dated 1994)", "key": {"[1]": {"system": "tobacco hornworms (Manducca sexta)", "parameters": "species or system Manduca sexta", "settings": "in vivo"}, "adenylate cyclase": {"system": "adenylate cyclase", "settings": "cockroach, a resistant species; cited from earlier work"}, "Gs -coupled OA receptors": {"system": "Gs -coupled OA receptors", "settings": "Manduca, a sensitive species; cited from earlier work"}, "[2]": {"system": "octopamine reuptake transporter", "assay_type": "biochemical, cockroach"}, "firefly lantern": {"system": "firefly lantern", "experiment": "Firefly lantern assay (OA-stimulated light emission)", "assay_type": "in vivo, P. pyralis", "settings": "fixed dose of cocaine injected simultaneously with OA into isolated firefly tails; zero Ca++/high Mn++", "text": "To measure the effects of drugs on firefly light emission, an isolated tail (terminal 3 abdominal segments containing the light organ) of a fresh adult P. pyralis male was mounted on a […] stainless steel needle and placed at the focal point of an optical system connected to a photometer-photomultiplier-chart recorder combination (see Nathanson, J. A., Characterization of octopamine-sensitive adenylate cyclase: Development of a potent and selective class of octopamine-2 receptor agonists with toxic effects in insects, Proc. Natl. Acad. Sci. U.S.A. 82: 599-603 (1985)). Drug (dissolved in insect saline, see Carlson, A.D., Effect of adrenergic drugs on the lantern of the larvae of the Photinus firefly, J. Exp. Biol. 48: 381-387 (1968)) was injected (3-5 μl) into the abdominal cavity dorsal to the lantern and light emission was recorded for 45 minutes or until it peaked, following which the next (larger) dose of drug was injected. In the case of animals injected with drugs other than octopamine, following the last dose, […] of octopamine (a maximally effective dose) was injected. Light production is expressed as radiance, each unit approximately equal to 1.6 nanowatts, as measured in a solid angle of 0.033 steradiants. […]"}, "mosquito larvae": {"system": "mosquito larvae", "experiment": "Antilarval activity on mosquito larvae", "assay_type": "in vivo", "procedure": "Five to ten 2-5-day old mosquito larvae, reared from eggs, were placed in small bottles containing 3 ml of water, 2 ml of air space, and a perforated cap open to the air. The compound of interest was dissolved in water or appropriate solvent and added to make a final concentration of from 0.00001 to 1%. The bottles were capped and observed at daily intervals for the number of living larvae, pupae, and emerging adults. After two weeks, the final number of adults emerging as a percentage, relative to control, is plotted as a function of drug concentration."}, "[3]": {"system": "octopamine reuptake transporter", "assay_type": "cell-based, Blaberus", "settings": "100 μM cocaine; ±S.E.M. of triplicate determinations; control 13.6±1.7"}, "Manducca eggs": {"system": "Manducca eggs", "experiment": "Ovicidal assay", "assay_type": "in vivo, Manduca sexta", "settings": "3% cocaine", "procedure": "Test agents were tested for ovicidal activity by dipping groups of 10-50 Manducca eggs in drug solutions for 60 seconds and then determining the percentage of eggs which produced viable larvae. Alternatively, the eggs may be sprayed with the test agent and then placed on artificial media to hatch. A compound with active ovicidal activity was one which decreased the percentage of eggs hatched, relative to control."}}, "note": "Where a name gives a salt, the structure may show the parent alone. Read-outs that look alike come from different tables or passages of the source.", "data": [{"compound": "1-(2-[bis-(4-fluorophenyl)methoxy]ethyl)-4-(3-phenyl-2-propenyl)piperazine [GBR 12909]", "values": [{"measurement": "% leaf remaining", "setting": "[1]", "value": "~95", "unit": "%"}, {"measurement": "RANK ORDER ANTIFEEDING EFFECT IN MANDUCA", "setting": "[1]", "value": "GBR > COC = DMI = AMT > DSP = XYL ="}]}, {"compound": "NCCc1c[nH]c2ccc(O)cc12", "note": "[5-HT, serotonin]", "values": [{"measurement": "antifeeding effect compared to OA", "setting": "[1]", "value": "significantly weaker than OA"}]}, {"compound": "CN(C)CCC=C1c2ccccc2CCc2ccccc21", "note": "[AMT, amitriptyline]", "values": [{"measurement": "% leaf remaining", "setting": "[1]", "value": "~100", "unit": "%"}, {"measurement": "RANK ORDER ANTIFEEDING EFFECT IN MANDUCA", "setting": "[1]", "value": "GBR > COC = DMI = AMT > DSP = XYL ="}]}, {"compound": "NCCc1ccc(O)c(O)c1", "note": "[DA, dopamine]", "values": [{"measurement": "antifeeding effect", "setting": "[1]", "value": "no antifeeding effects"}, {"measurement": "antifeeding effect of addition to cocaine", "setting": "[1]", "value": "no further increase in antifeeding effect"}]}, {"compound": "Cc1cc(Cl)ccc1N=CN", "note": "[DDCDM, didemethylchlordimeform]", "values": [{"measurement": "potency in activating adenylate cyclase relative to OA", "setting": "adenylate cyclase", "value": "much weaker than OA"}, {"measurement": "potency relative to OA (full OA agonist)", "setting": "Gs -coupled OA receptors", "value": 20, "unit": "fold"}]}, {"compound": "CNCCCN1c2ccccc2CCc2ccccc21", "note": "[DMI, desmethylimipramine]", "values": [{"measurement": "% leaf remaining", "setting": "[1]", "value": "~80", "unit": "%"}, {"measurement": "RANK ORDER ANTIFEEDING EFFECT IN MANDUCA", "setting": "[1]", "value": "GBR > COC = DMI = AMT > DSP = XYL ="}]}, {"compound": "CCN(CCCl)Cc1ccccc1Br", "note": "[DSP-4]", "values": [{"measurement": "% leaf remaining", "setting": "[1]", "value": "~100", "unit": "%"}, {"measurement": "RANK ORDER ANTIFEEDING EFFECT IN MANDUCA", "setting": "[1]", "value": "GBR > COC = DMI = AMT > DSP = XYL ="}]}, {"compound": "COC(=O)C1=CC[C@@H]2CC[C@H]1N2C", "note": "[Ecgonidine methyl ester mesylate, (1 R)-8-methyl-8-azabicyclo[3,2,1]oct-2-ene-2-carboxylic acid methyl ester mesylate]", "values": [{"measurement": "antifeeding effect", "setting": "[1]", "value": "no antifeeding effect"}]}, {"compound": "CN1[C@H]2CC[C@@H]1[C@@H](C(=O)O)[C@H](O)C2", "note": "[Ecgonine hydrochloride, (-)-beta-hydroxy-1-alpha-H, 5-alpha-H-tropane-2-beta-carboxlic acid hydrochloride]", "values": [{"measurement": "antifeeding effect", "setting": "[1]", "value": "no antifeeding effect"}]}, {"compound": "NC[C@H](O)c1ccc(O)c(O)c1", "note": "[NE, norepinephrine]", "values": [{"measurement": "antifeeding effect compared to OA", "setting": "[1]", "value": "significantly weaker than OA"}]}, {"compound": "COC(=O)[C@H]1[C@@H](OC(=O)c2ccccc2)C[C@@H]2CC[C@H]1N2C", "note": "[cocaine]", "values": [{"measurement": "inhibition of sodium-dependent octopamine uptake", "setting": "[2]; 10 μM cocaine", "value": "about 25%"}, {"measurement": "inhibition of sodium-dependent octopamine uptake", "setting": "[2]; 100 μM cocaine", "value": "about 68%"}, {"measurement": "leftward shift in the OA dose-response curve (factor)", "setting": "firefly lantern", "value": "about 10"}, {"measurement": "percent larvae surviving to mature adulthood", "setting": "mosquito larvae; 0.01% cocaine in water", "value": "approximately 50%"}, {"measurement": "adults produced", "setting": "mosquito larvae; 0.1% cocaine in water", "value": "no adults were produced"}, {"measurement": "total uptake of octopamine", "setting": "[3]", "value": "9.6 ±1.4", "unit": "pmol/mg protein"}, {"measurement": "RANK ORDER ANTIFEEDING EFFECT IN MANDUCA", "setting": "[1]", "value": "GBR > COC = DMI = AMT > DSP = XYL ="}, {"measurement": "behavior of larvae on sprayed leaves", "setting": "[1]", "value": "marked behavioral abnormalities"}, {"measurement": "time after which animals died", "setting": "[1]", "value": "48 to 72", "unit": "h"}, {"measurement": "percent dead ova", "setting": "Manducca eggs", "value": "greater than 95%"}]}, {"compound": "CN1CCC(=C2c3ccccc3C=Cc3ccccc32)CC1", "note": "[cyproheptadine]", "values": [{"measurement": "% leaf remaining", "setting": "[1]", "value": "~55", "unit": "%"}]}, {"compound": "CNCCC(Oc1ccc(C(F)(F)F)cc1)c1ccccc1", "note": "(stereo not drawn) [fluoxetine]", "values": [{"measurement": "% leaf remaining", "setting": "[1]", "value": "~85", "unit": "%"}, {"measurement": "RANK ORDER ANTIFEEDING EFFECT IN MANDUCA", "setting": "[1]", "value": "FLUOX >>MAZ"}]}, {"compound": "CCN(CC)CC(=O)Nc1c(C)cccc1C", "note": "[lidocaine]", "values": [{"measurement": "antifeeding inhibition", "setting": "[1]", "value": 15, "unit": "%"}]}, {"compound": "OC1(c2ccc(Cl)cc2)c2ccccc2C2=NCCN21", "note": "(stereo not drawn) [mazindol]", "values": [{"measurement": "RANK ORDER ANTIFEEDING EFFECT IN MANDUCA", "setting": "[1]", "value": "FLUOX >>MAZ"}, {"measurement": "antifeeding effect", "setting": "[1]", "value": "no antifeeding activity"}]}, {"compound": "CCN(CC)CCOC(=O)c1ccc(N)cc1", "note": "[procaine]", "values": [{"measurement": "antifeeding effect", "setting": "[1]", "value": "only lidocaine showed any activity"}]}]}
